Here are results for 22 molecules from patent publication US8895592B2, “Compounds as cannabinoid receptor ligands” (priority 2008, dated 2014).

pKi: −log10 of the molar value.

One test concerns the target human CB2 receptors (Homo sapiens (Human), UniProt P34972). Put plainly: human CB2 radioligand binding assay ([3H]CP 55,940 competition). As to conditions: HEK293 membranes, 0.5 nM [3H]CP 55,940. The procedure:
HEK293 cells stably expressing human CB2 receptors were grown until a confluent monolayer was formed. Briefly, the cells were harvested and homogenized in TE buffer (50 mM Tris-HCl, 1 mM MgCl2, and 1 mM EDTA) using a polytron for 2×10 second bursts in the presence of protease inhibitors, followed by centrifugation at 45,000×g for 20 minutes. The final membrane pellet was re-homogenized in storage buffer (50 mM Tris-HCl, 1 mM MgCl2, and 1 mM EDTA and 10% sucrose) and frozen at −78° C. until used. Saturation binding reactions were initiated by the addition of membrane preparation (protein concentration of 5 μg/well for human CB2) into wells of a deep well plate containing [^3H]CP 55,940 (120 Ci/mmol, a nonselective CB agonist commercially available from Tocris) in assay buffer (50 mM Tris, 2.5 mM EDTA, 5 mM MgCl2, and 0.5 mg/mL fatty acid free BSA, pH 7.4). After 90 min incubation at 30° C., binding reaction was terminated by the addition of 300 μL/well of cold assay buffer followed by rapid vacuum filtration through a UniFilter-96 GF/C filter plates (pre-soaked in 1 mg/mL BSA for 2 hours). The bound activity was counted in a TopCount using Microscint-20. Saturation experiments were conducted with twelve concentrations of [^3H]CP 55,940 ranging from 0.01 to 8 nM. Competition experiments were conducted with 0.5 nM [^3H]CP 55,940 and five concentrations (0.01 nM to 10 μM) of displacing ligands. The addition of 10 μM unlabeled CP 55,940 (Tocris, Ellisville, Mo.) was used to assess nonspecific binding.

The target in another test is rat CB2 receptors (Rattus norvegicus (Rat), UniProt Q9QZN9). The test can be described thus: rat CB2 radioligand binding assay ([3H]CP 55,940 competition). To be noted: HEK293 membranes, 0.5 nM [3H]CP 55,940. The procedure:
HEK293 cells stably expressing rat CB2 receptors were grown until a confluent monolayer was formed. Briefly, the cells were harvested and homogenized in TE buffer (50 mM Tris-HCl, 1 mM MgCl2, and 1 mM EDTA) using a polytron for 2×10 second bursts in the presence of protease inhibitors, followed by centrifugation at 45,000×g for 20 minutes. The final membrane pellet was re-homogenized in storage buffer (50 mM Tris-HCl, 1 mM MgCl2, and 1 mM EDTA and 10% sucrose) and frozen at −78° C. until used. Saturation binding reactions were initiated by the addition of membrane preparation (protein concentration of 20 μg/well for rat CB2) into wells of a deep well plate containing [^3H]CP 55,940 (120 Ci/mmol, a nonselective CB agonist commercially available from Tocris) in assay buffer (50 mM Tris, 2.5 mM EDTA, 5 mM MgCl2, and 0.5 mg/mL fatty acid free BSA, pH 7.4). After 45 min incubation at 30° C., binding reaction was terminated by the addition of 300 μl/well of cold assay buffer followed by rapid vacuum filtration through a UniFilter-96 GF/C filter plates (pre-soaked in 1 mg/mL BSA for 2 hours). The bound activity was counted in a TopCount using Microscint-20. Saturation experiments were conducted with twelve concentrations of [^3H]CP 55,940 ranging from 0.01 to 8 nM. Competition experiments were conducted with 0.5 nM [^3H]CP 55,940 and five concentrations of displacing ligands selected from the range of 0.01 nM to 10 μM. The addition of 10 μM unlabeled CP 55,940 (Tocris, Ellisville, Mo.) was used to assess nonspecific binding.

Chain of rat CB2 receptors (Q9QZN9 whole entry): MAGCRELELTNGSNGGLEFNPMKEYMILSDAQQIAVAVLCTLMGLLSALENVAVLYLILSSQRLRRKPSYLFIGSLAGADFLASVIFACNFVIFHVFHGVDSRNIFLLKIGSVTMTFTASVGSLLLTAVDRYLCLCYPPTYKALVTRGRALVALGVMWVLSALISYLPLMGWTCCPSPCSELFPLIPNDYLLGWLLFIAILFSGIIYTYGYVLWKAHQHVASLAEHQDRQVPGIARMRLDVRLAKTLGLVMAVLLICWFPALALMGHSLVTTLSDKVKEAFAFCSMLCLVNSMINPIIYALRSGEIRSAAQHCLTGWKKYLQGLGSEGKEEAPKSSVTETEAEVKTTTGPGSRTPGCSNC
Chain of human CB2 receptors (P34972 whole entry): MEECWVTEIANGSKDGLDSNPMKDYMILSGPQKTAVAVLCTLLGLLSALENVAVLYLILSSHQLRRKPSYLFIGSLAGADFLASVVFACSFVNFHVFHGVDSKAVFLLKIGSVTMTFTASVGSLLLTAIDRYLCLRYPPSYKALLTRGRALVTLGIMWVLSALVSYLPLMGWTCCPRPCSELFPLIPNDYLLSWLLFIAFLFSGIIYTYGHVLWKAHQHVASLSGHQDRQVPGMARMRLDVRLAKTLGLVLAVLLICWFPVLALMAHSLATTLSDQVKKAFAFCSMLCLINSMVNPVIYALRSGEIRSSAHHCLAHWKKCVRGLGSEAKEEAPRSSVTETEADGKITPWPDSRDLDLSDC

Broadly, the pKi is the Ki on a negative log10 scale, so that one unit is a factor of ten. A higher pKi goes with a small Ki. For `CC(C)Cn1cc(C(C)(C)C)s/c1=N\C(=O)c1cc(C(F)(F)F)ccc1OCCn1ccnc1` [Example 6, N-[(2Z)-5-tert-butyl-3-isobutyl-1,3-thiazol-2(3H)-ylidene]-2-[2-(1H-imidazol-1-yl)ethoxy]-5-(trifluoromethyl)benzamide], the pKi is 7.02 on human CB2 receptors and 7.41 on rat CB2 receptors.

In the case of `CC(C)Cn1cc(C(C)(C)C)s/c1=N\C(=O)c1ccccc1OC[C@@H]1CCCN1C` [Example 10, N-[(2Z)-5-tert-butyl-3-isobutyl-1,3-thiazol-2(3H)-ylidene]-2-{[(2S)-1-methylpyrrolidin-2-yl]methoxy}benzamide], the values for the pKi on human CB2 receptors and on rat CB2 receptors were 6.53 and 6.61, respectively.

Consider `CC(C)Cn1cc(C(C)(C)C)s/c1=N\C(=O)c1cc(C(F)(F)F)ccc1O[C@H]1CCN(C)C1` [Example 13, N-[(2Z)-5-tert-butyl-3-isobutyl-1,3-thiazol-2(3H)-ylidene]-2-{[(3S)-1-methylpyrrolidin-3-yl]oxy}-5-(trifluoromethyl)benzamide], for which the results for the pKi at human CB2 receptors and at rat CB2 receptors were 6.95 and 7.09, respectively.

Regarding `CC(C)Cn1cc(C(C)(C)C)s/c1=N\C(=O)c1cc(Cl)ccc1OC1CC1` [Example 15, N-[(2Z)-5-tert-butyl-3-isobutyl-1,3-thiazol-2(3H)-ylidene]-5-chloro-2-(cyclopropyloxy)benzamide], the pKi at human CB2 receptors was 8.00; on rat CB2 receptors, 8.96.

On to `CC(C)Cn1cc(C(C)(C)C)s/c1=N\C(=O)c1cc(C#N)ccc1OC1CCC1` [Example 16, N-[(2Z)-5-tert-butyl-3-isobutyl-1,3-thiazol-2(3H)-ylidene]-5-cyano-2-(cyclobutyloxy)benzamide], for which the pKi at human CB2 receptors is 7.02; on rat CB2 receptors, 8.28.

For the molecule `CC(C)(C)c1cn(CCC(F)(F)F)/c(=N/C(=O)c2cc(C#N)ccc2OC2CCC2)s1` [Example 17, N-[(2Z)-5-tert-butyl-3-(3,3,3-trifluoropropyl)-1,3-thiazol-2(3H)-ylidene]-5-cyano-2-(cyclobutyloxy)benzamide], the results for the pKi at human CB2 receptors and at rat CB2 receptors were 7.28 and 8.96, respectively.

For `CCCCn1/c(=N/C(=O)c2cc(C(F)(F)F)ccc2OCCC(C)(C)O)sc2ccncc21` [Example 20, N-[(2Z)-3-butyl[1,3]thiazolo[4,5-c]pyridin-2(3H)-ylidene]-2-(3-hydroxy-3-methylbutoxy)-5-(trifluoromethyl)benzamide], the figures for the pKi at human CB2 receptors and at rat CB2 receptors were 7.46 and 7.32, respectively.

For `CCCCn1/c(=N/C(=O)c2cc(C(F)(F)F)ccc2ONC(C)(C)C)sc2ccncc21` [Example 22, 2-[(tert-butylamino)oxy]-N-[(2Z)-3-butyl[1,3]thiazolo[4,5-c]pyridin-2(3H)-ylidene]-5-(trifluoromethyl)benzamide], the pKi at human CB2 receptors is 7.21; at rat CB2 receptors, 7.14.

With `CCCCn1cc(C(C)(C)C)s/c1=N\C(=O)c1cc(C(F)(F)F)ccc1ONC(C)(C)C` [Example 23, 2-[(tert-butylamino)oxy]-N-[(2Z)-3-butyl-5-tert-butyl-1,3-thiazol-2(3H)-ylidene]-5-(trifluoromethyl)benzamide], the results for the pKi on human CB2 receptors and at rat CB2 receptors were 8.17 and 9.02, respectively.

In the case of `Cc1s/c(=N\C(=O)c2cc(C(F)(F)F)ccc2OC[C@@H]2CCCN2C)n(CC2CC2)c1C` [Example 24, N-[(2Z)-3-(cyclopropylmethyl)-4,5-dimethyl-1,3-thiazol-2(3H)-ylidene]-2-{[(2S)-1-methylpyrrolidin-2-yl]methoxy}-5-(trifluoromethyl)benzamide], the pKi at human CB2 receptors was 7.52; at rat CB2 receptors it was 7.46.

As for `CC(C)(O)COc1ccc(C(F)(F)F)cc1C(=O)/N=c1\sc2ccncc2n1CC1CCC1` [Example 26, N-[(2Z)-3-(cyclobutylmethyl)[1,3]thiazolo[4,5-c]pyridin-2(3H)-ylidene]-2-(2-hydroxy-2-methylpropoxy)-5-(trifluoromethyl)benzamide], the pKi on human CB2 receptors was 8.60; on rat CB2 receptors, 8.13.

For the molecule `CC(C)(O)COc1ccc(C(F)(F)F)cc1C(=O)/N=c1\sc2ccncc2n1CCCC(F)(F)F` [Example 27, 2-(2-hydroxy-2-methylpropoxy)-N-[(2Z)-3-(4,4,4-trifluorobutyl)[1,3]thiazolo[4,5-c]pyridin-2(3H)-ylidene]-5-(trifluoromethyl)benzamide], the pKi on human CB2 receptors is 8.08; at rat CB2 receptors, 8.00.

Regarding `CCCCn1/c(=N/C(=O)c2cc(C(F)(F)F)ccc2OC[C@@H](C)O)sc2ccncc21` [Example 28, N-[(2Z)-3-butyl[1,3]thiazolo[4,5-c]pyridin-2(3H)-ylidene]-2-{[(2R)-2-hydroxypropyl]oxy}-5-(trifluoromethyl)benzamide], the pKi at human CB2 receptors is 7.12; at rat CB2 receptors, 7.20.

Consider `C#CCCn1cc(C(C)(C)C)s/c1=N\C(=O)c1cc(C(F)(F)F)ccc1ONC(C)(C)C` [Example 30, 2-[(tert-butylamino)oxy]-N-[(2Z)-5-tert-butyl-3-but-3-ynyl-1,3-thiazol-2(3H)-ylidene]-5-(trifluoromethyl)benzamide], for which the figures for the pKi on human CB2 receptors and on rat CB2 receptors were 7.82 and 9.12, respectively.

Take `C=C=CCn1cc(C(C)(C)C)s/c1=N\C(=O)c1cc(C(F)(F)F)ccc1ONC(C)(C)C` [Example 31, N-[(2Z)-3-buta-2,3-dienyl-5-tert-butyl-1,3-thiazol-2(3H)-ylidene]-2-[(tert-butylamino)oxy]-5-(trifluoromethyl)benzamide]: the pKi was 7.77 on human CB2 receptors and 8.77 at rat CB2 receptors.

Turning to `CCCCn1cc(C(C)(C)C)s/c1=N\C(=O)c1cc(C(F)(F)F)ccc1OCC(C)(C)O` [Example 32, N-[(2Z)-3-butyl-5-tert-butyl-1,3-thiazol-2(3H)-ylidene]-2-(2-hydroxy-2-methylpropoxy)-5-(trifluoromethyl)benzamide], the pKi is 9.09 on human CB2 receptors and 8.92 at rat CB2 receptors.

In the case of `CCCCn1/c(=N/C(=O)c2cc(C(F)(F)F)ccc2OC[C@@H]2CCCN2C)sc2ccncc21` [Example 33, N-[(2Z)-3-butyl[1,3]thiazolo[4,5-c]pyridin-2(3H)-ylidene]-2-{[(2S)-1-methylpyrrolidin-2-yl]methoxy}-5-(trifluoromethyl)benzamide], the pKi on human CB2 receptors is 7.47; at rat CB2 receptors it was 7.46.

`CCCCn1c(C(=O)OC)c(C(C)C)s/c1=N\C(=O)c1cc(C(F)(F)F)ccc1ONC(C)(C)C` [Example 34]: the values for the pKi at human CB2 receptors and at rat CB2 receptors were 6.89 and 7.32, respectively.

In the case of `CCCCn1/c(=N/C(=O)c2cc(C(F)(F)F)ccc2OCC(C)(C)O)sc2ncccc21` [Example 35, N-[(2Z)-1-butyl[1,3]thiazolo[5,4-b]pyridin-2(1H)-ylidene]-2-(2-hydroxy-2-methylpropoxy)-5-(trifluoromethyl)benzamide], the pKi is 7.82 on human CB2 receptors and 7.55 on rat CB2 receptors.

As to `CCCCn1/c(=N/C(=O)c2cc(C(F)(F)F)ccc2OC[C@H](C)O)sc2ncccc21` [Example 36, N-[(2Z)-1-butyl[1,3]thiazolo[5,4-b]pyridin-2(1H)-ylidene]-2-{[(2S)-2-hydroxypropyl]oxy}-5-(trifluoromethyl)benzamide], the pKi was 8.85 on human CB2 receptors and 8.68 on rat CB2 receptors.

On to `CCCCn1cc(C(C)(C)C)s/c1=N\C(=O)c1cc(C(F)(F)F)ccc1NNC(=O)c1cccnc1` [Example 37, N-[(2Z)-3-butyl-5-tert-butyl-1,3-thiazol-2(3H)-ylidene]-2-[2-(pyridin-3-ylcarbonyl)hydrazino]-5-(trifluoromethyl)benzamide], for which the pKi at human CB2 receptors is 8.80; on rat CB2 receptors, 9.11.

`CCCCn1cc(C(C)(C)C)s/c1=N\C(=O)c1cc(C(F)(F)F)ccc1NNC(=O)c1ccncc1` [Example 38, N-[(2Z)-3-butyl-5-tert-butyl-1,3-thiazol-2(3H)-ylidene]-2-(2-isonicotinoylhydrazino)-5-(trifluoromethyl)benzamide]: the pKi was 8.96 at human CB2 receptors and 8.64 at rat CB2 receptors.
